# Assay results taken from ChEMBL document CHEMBL5385929, “Tabersonine Enhances Olaparib Sensitivity through FHL1-Mediated Epithelial-Mesenchymal Transition in an Ovarian Tumor” (J Nat Prod, 2024).
# Activity calls are given as the source filed them. The rule behind the calls is not given here.
# What was measured:
# A2780 [1] = assay: Synergistic antiproliferative activity against human A2780 cells assessed as combination index for reduction of cell viability in presence of olaparib by CCK8 assay; format: functional
# A2780 [2] = assay: Downregulation of EMT signalling in human A2780 cells transfected with shFHL1-2 RNA assessed as N-cadherin protein expression at 10 uM by western blot analysis; format: functional, cell-based
# A2780 [3] = assay: Potentiation of olaparib sensitivity in human A2780 cells transfected with shFLH1-1 RNA assessed as downregulation of EMT signaling by measuring N-cadherin protein expression at 10 uM in presence of olaparib by western blot analysis; format: functional, cell-based
# Mus musculus [4] = assay: Potentiation of olaparib sensitivity in BALB/c mouse xenografted with shFHL1-1 RNA-transfected human A2780 cells assessed as upregulation of FHL1 protein expression in tumor at 15 mg/kg, ip co-administered with olaparib for 2 weeks by western blot analysis; format: functional, organism-based
# SK-OV-3 [5] = assay: Potentiation of olaparib sensitivity in human SK-OV-3 cells assessed as inhibition of cell migration at 10 uM measured after 24 to 48 hrs in presence of olaparib by wound healing assay; format: functional, cell-based; conditions: time 24-48 hrs
# A2780 [6] = assay: Potentiation of olaparib sensitivity in human A2780 cells assessed as inhibition of cell migration at 10 uM measured after 24 to 48 hrs in presence of olaparib by wound healing assay; format: functional, cell-based; conditions: time 24-48 hrs
# SK-OV-3 [7] = assay: Downregulation of EMT signalling in human SK-OV-3 cells assessed as upregulation of E-cadherin protein expression at 10 uM by western blot analysis; format: functional, cell-based
# SK-OV-3 [8] = assay: Potentiation of olaparib sensitivity in human SK-OV-3 cells transfected with shFHL1-1 RNA assessed as inhibition of cell migration at 10 uM measured after 24 to 48 hrs in presence of olaparib by wound healing assay; format: functional, cell-based; conditions: time 24-48 hrs
# SK-OV-3 [9] = assay: Synergistic antiproliferative activity against human SK-OV-3 cells assessed as combination index for reduction of cell viability in presence of olaparib by CCK8 assay; format: functional
# Mus musculus [10] = assay: Potentiation of olaparib sensitivity in BALB/c mouse xenografted with shFHL1-1 RNA-transfected human A2780 cells assessed as increase in FHL1 protein expression in tumor at 15 mg/kg, ip co-administered with olaparib for 2 weeks by immunohistochemistry; format: functional, organism-based
# [11] = Toxicity in BALB/c mouse xenografted with human A2780 cells assessed as effect on body weight at 15 mg/kg, ip co-administered with olaparib for 2 weeks; format: organism-based; conditions: in vivo, 336 h
# A2780 [12] = assay: Potentiation of olaparib sensitivity in human A2780 cells transfected with shFLH1-1 RNA assessed as downregulation of EMT signaling by measuring vimentin protein expression at 10 uM in presence of olaparib by western blot analysis; format: functional, cell-based
# SK-OV-3 [13] = assay: Potentiation of olaparib sensitivity in human SK-OV-3 cells transfected with shFLH1-2 RNA assessed as downregulation of EMT signaling by measuring E-cadherin protein expression at 10 uM in presence of olaparib by western blot analysis; format: functional, cell-based
# SK-OV-3 [14] = assay: Potentiation of olaparib sensitivity in human SK-OV-3 cells assessed as downregulation of EMT signaling by measuring downregulation of vimentin protein expression at 10 uM in presence of olaparib by western blot analysis; format: functional, cell-based
# [15] = Toxicity in BALB/c mouse xenografted with human A2780 cells assessed as animal's death at 30 mg/kg, ip administered every other day and measured on day 6; format: organism-based; conditions: in vivo, 144 h, time 6 day
# A2780 [16] = assay: Downregulation of EMT signalling in human A2780 cells transfected with shFHL1-1 RNA assessed as N-cadherin protein expression at 10 uM by western blot analysis; format: functional, cell-based
# SK-OV-3 [17] = assay: Downregulation of EMT signalling in human SK-OV-3 cells transfected with shFHL1-1 RNA assessed as N-cadherin protein expression at 10 uM by western blot analysis; format: functional, cell-based
# SK-OV-3 [18] = assay: Upregulation of FHL1 protein expression in human SK-OV-3 cells by western blot analysis; format: functional, cell-based; conditions: dose 5-20 µM
# A2780 [19] = assay: Upregulation of FHL1 protein expression in human A2780 cells by western blot analysis; format: functional, cell-based; conditions: dose 5-20 µM
# A2780 [20] = assay: Antitumor activity against human A2780 cells xenografted in BALB/c mouse assessed as decrease in tumor volume at 5 to 15 mg/kg, ip administered every other day for 2 weeks; format: functional, organism-based; conditions: dose 5-15 mg/kg
# SK-OV-3 [21] = assay: Increase in FHL1 protein stability in human SK-OV-3 cells at 10 uM measured after 6 to 24 hrs in presence of cycloheximide by CHX chase assay based western blot analysis; format: functional, cell-based; conditions: time 6-24 hrs
# A2780 [22] = assay: Inhibition of cell invasion in human A2780 cells transfected with shFHL1-1 RNA at 10 uM measured after 48 hrs by Transwell assay; format: functional, cell-based
# A2780 [23] = assay: Downregulation of EMT signalling in human A2780 cells transfected with shFHL1-1 RNA assessed as vimentin protein expression at 10 uM by western blot analysis; format: functional, cell-based
# A2780 [24] = assay: Potentiation of olaparib sensitivity in human A2780 cells assessed as downregulation of EMT signaling by measuring downregulation of N-cadherin protein expression at 10 uM in presence of olaparib by western blot analysis; format: functional, cell-based
# SK-OV-3 [25] = assay: Potentiation of olaparib sensitivity in human SK-OV-3 cells assessed as induction of DNA damage response by measuring increase in tail moment at 10 uM measured after 48 hrs in presence of olaparib by alkaline comet assay; format: functional, cell-based
# SK-OV-3 [26] = assay: Downregulation of EMT signalling in human SK-OV-3 cells transfected with shFHL1-2 RNA assessed as N-cadherin protein expression at 10 uM by western blot analysis; format: functional, cell-based
# A2780 [27] = assay: Potentiation of olaparib sensitivity in human A2780 cells transfected with shFHL1-1 RNA assessed as inhibition of cell migration at 10 uM measured after 24 to 48 hrs in presence of olaparib by wound healing assay; format: functional, cell-based; conditions: time 24-48 hrs
# SK-OV-3 [28] = assay: Potentiation of olaparib sensitivity in human SK-OV-3 cells assessed as inhibition of cell invasion at 10 uM measured after 48 hrs in presence of olaparib by Transwell assay; format: functional, cell-based
# SK-OV-3 [29] = assay: Downregulation of EMT signalling in human SK-OV-3 cells assessed as downregulation of N-cadherin protein expression at 10 uM by western blot analysis; format: functional, cell-based
# A2780 [30] = assay: Inhibition of cell invasion in human A2780 cells at 10 uM measured after 48 hrs by Transwell assay; format: functional, cell-based
# A2780 [31] = assay: Potentiation of olaparib sensitivity in human A2780 cells transfected with shFLH1-2 RNA assessed as downregulation of EMT signaling by measuring N-cadherin protein expression at 10 uM in presence of olaparib by western blot analysis; format: functional, cell-based
# SK-OV-3 [32] = assay: Inhibition of cell invasion in human SK-OV-3 cells transfected with shFHL1-1 RNA at 10 uM measured after 48 hrs by Transwell assay; format: functional, cell-based
# A2780 [33] = assay: Potentiation of olaparib sensitivity in human A2780 cells assessed as induction of DNA damage response by measuring increase in tail moment at 10 uM measured after 48 hrs in presence of olaparib by alkaline comet assay; format: functional, cell-based
# Mus musculus [34] = assay: Potentiation of olaparib sensitivity in BALB/c mouse xenografted with shFHL1-1 RNA-transfected human A2780 cells assessed as downregulation of vimentin protein expression in tumor at 15 mg/kg, ip co-administered with olaparib for 2 weeks by western blot analysis; format: functional, organism-based
smiles,measurement,setting,value
CC[C@]12C=CCN3CC[C@]4(C(=C(C(=O)OC)C1)Nc1ccccc14)[C@@H]32 [TABERSONINE],CI,A2780 [1],<1
same,inhibition,A2780 [2],inactive
same,Activity,A2780 [3],inactive
same,Activity,Mus musculus [4],inactive
same,Activity,SK-OV-3 [5],Active
same,Activity,A2780 [6],Active
same,inhibition,SK-OV-3 [7],Active
same,Activity,SK-OV-3 [8],inactive
same,CI,SK-OV-3 [9],<1
same,Activity,Mus musculus [10],inactive
same,Activity,[11],Non-Toxic
same,Activity,A2780 [12],inactive
same,Activity,SK-OV-3 [13],inactive
same,Activity,SK-OV-3 [14],Active
same,Activity,[15],Toxic
same,inhibition,A2780 [16],inactive
same,inhibition,SK-OV-3 [17],inactive
same,Activity,SK-OV-3 [18],Dose-Dependent Effect
same,Activity,A2780 [19],Dose-Dependent Effect
same,Activity,A2780 [20],Active
same,Activity,SK-OV-3 [21],Active
same,inhibition,A2780 [22],inactive
same,inhibition,A2780 [23],inactive
same,Activity,A2780 [24],Active
same,Activity,SK-OV-3 [25],Active
same,inhibition,SK-OV-3 [26],inactive
same,Activity,A2780 [27],inactive
same,Activity,SK-OV-3 [28],Active
same,inhibition,SK-OV-3 [29],Active
same,inhibition,A2780 [30],Active
same,Activity,A2780 [31],inactive
same,inhibition,SK-OV-3 [32],inactive
same,Activity,A2780 [33],Active
same,Activity,Mus musculus [34],inactive
